Laboratory results published in patent publication US9840495B2, “Oxindole derivatives carrying a piperidyl-substituted azetidinyl substituent and use thereof for treating vasopressine-related diseases” (AbbVie Deutschland GmbH & Co. KG, priority 2013, dated 2017).

How the values were obtained:
[1] = target: human vasopressin V1a receptor (Homo sapiens, UniProt P37288); assay: Vasopressin V1a receptor binding assay (125I-AVP displacement, CHO-K1 membranes); conditions: selectivity quotient, human V1a vs human V1b receptor binding
[2] = target: T1, human vasopressin V1b receptor (Homo sapiens, UniProt P47901); assay: biochemical
T1 sequence (P47901 1-424): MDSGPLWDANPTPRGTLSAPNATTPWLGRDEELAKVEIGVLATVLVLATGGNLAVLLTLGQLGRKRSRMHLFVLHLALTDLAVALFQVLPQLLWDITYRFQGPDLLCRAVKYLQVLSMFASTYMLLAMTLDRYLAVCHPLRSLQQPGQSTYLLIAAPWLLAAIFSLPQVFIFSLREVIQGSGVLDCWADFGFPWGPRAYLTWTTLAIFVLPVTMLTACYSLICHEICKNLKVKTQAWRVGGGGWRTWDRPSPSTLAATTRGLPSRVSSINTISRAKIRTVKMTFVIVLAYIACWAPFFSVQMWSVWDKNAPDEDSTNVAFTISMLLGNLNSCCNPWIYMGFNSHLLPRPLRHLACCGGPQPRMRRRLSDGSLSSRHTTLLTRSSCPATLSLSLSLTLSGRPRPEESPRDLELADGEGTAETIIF

Sequence of human vasopressin V1a receptor (P37288 whole entry): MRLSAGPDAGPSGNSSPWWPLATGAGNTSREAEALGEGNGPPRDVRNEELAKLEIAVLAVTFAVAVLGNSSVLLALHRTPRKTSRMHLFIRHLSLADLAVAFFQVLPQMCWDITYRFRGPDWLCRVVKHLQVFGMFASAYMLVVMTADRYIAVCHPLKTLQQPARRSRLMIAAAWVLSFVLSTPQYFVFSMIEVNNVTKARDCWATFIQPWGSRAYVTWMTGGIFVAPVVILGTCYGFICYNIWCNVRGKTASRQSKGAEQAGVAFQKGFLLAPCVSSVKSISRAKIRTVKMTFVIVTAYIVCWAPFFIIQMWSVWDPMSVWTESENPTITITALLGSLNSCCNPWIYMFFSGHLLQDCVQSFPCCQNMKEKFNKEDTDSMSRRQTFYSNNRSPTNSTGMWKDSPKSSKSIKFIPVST

Row | Structure (SMILES) | Ki(h-V1a)/Ki(h-V1b) [1] | Ki [2]
1 | CCOc1ncccc1[C@]1(NC(=O)N2CC(N3CCC(N4CC(F)(F)C4)CC3)C2)C(=O)N(S(=O)(=O)c2ccc(OC)cc2OC)c2ccc(C#N)cc21 [Example 39, (S)—N-(5-Cyano-1-((2,4-dimethoxyphenyl)sulfonyl)-3-(2-ethoxypyridin-3-yl)-2-oxoindolin-3-yl)-3-(4-(3,3-difluoroazetidin-1-yl)piperidin-1-yl)azetidine-1-carboxamide] | +++ (>75) | 10 to 100 nM
2 | CCN(C1CCN(C2CN(C(=O)N[C@@]3(c4cccnc4OC)C(=O)N(S(=O)(=O)c4ccc(OC)cc4OC)c4ccc(C#N)cc43)C2)CC1)C1COC1 [Example 23, (S)—N-(5-Cyano-1-((2,4-dimethoxyphenyl)sulfonyl)-3-(2-methoxypyridin-3-yl)-2-oxoindolin-3-yl)-3-(4-(ethyl(oxetan-3-yl)amino)piperidin-1-yl)azetidine-1-carboxamide] | ++ (25-75) | 1 to 10 nM
3 | COc1ccccc1S(=O)(=O)N1C(=O)[C@@](NC(=O)N2CC(N3CCC(N(C)C4COC4)CC3)C2)(c2cccnc2OC)c2cc(C#N)ccc21 [Example 29, (S)—N-(5-Cyano-1-((2-methoxyphenyl)sulfonyl)-3-(2-methoxypyridin-3-yl)-2-oxoindolin-3-yl)-3-(4-(methyl(oxetan-3-yl)amino)piperidin-1-yl)azetidine-1-carboxamide] | + (10-<25) | 1 to 10 nM
4 | CCOc1ncccc1[C@]1(NC(=O)N2CC(N3CCC(N4CCOCC4)CC3)C2)C(=O)N(S(=O)(=O)c2ccc(OC)cc2)c2ccc(C#N)cc21 [Example 25, (S)—N-(5-Cyano-3-(2-ethoxypyridin-3-yl)-1-((4-methoxyphenyl)sulfonyl)-2-oxoindolin-3-yl)-3-(4-morpholinopiperidin-1-yl)azetidine-1-carboxamide] | ++ (25-75) | < 1 nM
5 | CCOc1ncccc1[C@]1(NC(=O)N2CC(N3CCC(N(C)CCOC)CC3)C2)C(=O)N(S(=O)(=O)c2ccc(OC)cc2OC)c2ccc(C#N)cc21 [Example 15, (S)—N-(5-Cyano-1-((2,4-dimethoxyphenyl)sulfonyl)-3-(2-ethoxypyridin-3-yl)-2-oxoindolin-3-yl)-3-(4-((2-methoxyethyl)(methyl)amino)piperidin-1-yl)azetidine-1-carboxamide] | +++ (>75) | 1 to 10 nM
6 | CCOc1ncccc1[C@]1(NC(=O)N2CC(N3CCC(N(CC)C4COC4)CC3)C2)C(=O)N(S(=O)(=O)c2ccc(OC)cc2OC)c2ccc(C#N)cc21 [Example 5, (S)—N-(5-Cyano-1-((2,4-dimethoxyphenyl)sulfonyl)-3-(2-ethoxypyridin-3-yl)-2-oxoindolin-3-yl)-3-(4-(ethyl(oxetan-3-yl)amino)piperidin-1-yl)azetidine-1-carboxamide] | +++ (>75) | 1 to 10 nM
7 | CCOc1ncccc1[C@]1(NC(=O)N2CC(N3CCC(N4CCC(F)(F)CC4)CC3)C2)C(=O)N(S(=O)(=O)c2ccc(OC)cc2OC)c2ccc(C#N)cc21 [Example 40, (S)—N-(5-Cyano-1-((2,4-dimethoxyphenyl)sulfonyl)-3-(2-ethoxypyridin-3-yl)-2-oxoindolin-3-yl)-3-(4,4-difluoro-[1,4′-bipiperidin]-1′-yl)azetidine-1-carboxamide] | +++ (>75) | < 1 nM
8 | CCOc1ncccc1[C@]1(NC(=O)N2CC(N3CCC(N4CC(OC)C4)CC3)C2)C(=O)N(S(=O)(=O)c2ccc(OC)cc2OC)c2ccc(C#N)cc21 [Example 41, (S)—N-(5-Cyano-1-((2,4-dimethoxyphenyl)sulfonyl)-3-(2-ethoxypyridin-3-yl)-2-oxoindolin-3-yl)-3-(4-(3-methoxyazetidin-1-yl)piperidin-1-yl)azetidine-1-carboxamide] | +++ (>75) | 1 to 10 nM
9 | CCOc1ncccc1[C@]1(NC(=O)N2CC(N3CCC(N4CC(C5COC5)C4)CC3)C2)C(=O)N(S(=O)(=O)c2ccc(OC)cc2OC)c2ccc(C#N)cc21 [Example 18, (S)—N-(5-Cyano-1-((2,4-dimethoxyphenyl)sulfonyl)-3-(2-ethoxypyridin-3-yl)-2-oxoindolin-3-yl)-3-(4-(3-(oxetan-3-yl)azetidin-1-yl)piperidin-1-yl)azetidine-1-carboxamide] | +++ (>75) | < 1 nM
10 | CCOc1ncccc1[C@]1(NC(=O)N2CC(N3CCC(N(C)C4COC4)CC3)C2)C(=O)N(S(=O)(=O)c2ccc(OC)cc2OC)c2cc(F)c(F)cc21 [Example 11, N-[(3S)-1-[(2,4-Dimethoxyphenyl)sulfonyl]-3-(2-ethoxypyridin-3-yl)-5,6-difluoro-2-oxo-2,3-dihydro-1H-indol-3-yl]-3-{4-[methyl(oxetan-3-yl)amino]piperidin-1-yl}azetidine-1-carboxamide] | ++ (25-75) | 1 to 10 nM
11 | CCOc1ncccc1[C@]1(NC(=O)N2CC(N3CCC(N4CCOCC4)CC3)C2)C(=O)N(S(=O)(=O)c2ccc(OC)cc2OC)c2cc(F)c(C#N)cc21 [Example 9, (S)—N-(5-Cyano-1-((2,4-dimethoxyphenyl)sulfonyl)-3-(2-ethoxypyridin-3-yl)-6-fluoro-2-oxoindolin-3-yl)-3-(4-morpholinopiperidin-1-yl)azetidine-1-carboxamide] | ++ (25-75) | < 1 nM
12 | CCOc1ncccc1[C@]1(NC(=O)N2CC(N3CCC(N4CCOCC4)CC3)C2)C(=O)N(S(=O)(=O)c2ccc(F)cc2OC)c2ccc(C#N)cc21 [Example 28, (S)—N-(5-cyano-3-(2-ethoxypyridin-3-yl)-1-((4-fluoro-2-methoxyphenyl)sulfonyl)-2-oxoindolin-3-yl)-3-(4-morpholinopiperidin-1-yl)azetidine-1-carboxamide] | +++ (>75) | 1 to 10 nM
13 | CCOc1ncccc1[C@]1(NC(=O)N2CC(N3CCC(N4CCC(OC)CC4)CC3)C2)C(=O)N(S(=O)(=O)c2ccc(OC)cc2OC)c2ccc(C#N)cc21 [Example 42, (S)—N-(5-Cyano-1-((2,4-dimethoxyphenyl)sulfonyl)-3-(2-ethoxypyridin-3-yl)-2-oxoindolin-3-yl)-3-(4-methoxy-[1,4′-bipiperidin]-1′-yl)azetidine-1-carboxamide] | +++ (>75) | 1 to 10 nM
14 | COc1ccc(S(=O)(=O)N2C(=O)[C@@](NC(=O)N3CC(N4CCC(N5CCOCC5)CC4)C3)(c3cc(OC)ccc3OC)c3cc(C#N)ccc32)c(OC)c1 [Example 45, (S)—N-(5-Cyano-3-(2,5-dimethoxyphenyl)-1-((2,4-dimethoxyphenyl)sulfonyl)-2-oxoindolin-3-yl)-3-(4-morpholinopiperidin-1-yl)azetidine-1-carboxamide] | + (10-<25) | < 1 nM
15 | COc1ccc(S(=O)(=O)N2C(=O)[C@@](NC(=O)N3CC(N4CCC(N(C)C5COC5)CC4)C3)(c3cc(OC)ccc3OC)c3cc(C#N)ccc32)c(OC)c1 [Example 46, (S)—N-(5-Cyano-3-(2,5-dimethoxyphenyl)-1-((2,4-dimethoxyphenyl)sulfonyl)-2-oxoindolin-3-yl)-3-(4-(methyl(oxetan-3-yl)amino)piperidin-1-yl)azetidine-1-carboxamide] | ++ (25-75) | < 1 nM
16 | COc1cc(F)ccc1S(=O)(=O)N1C(=O)[C@@](NC(=O)N2CC(N3CCC(N(C)C4COC4)CC3)C2)(c2cccnc2OC)c2cc(C#N)ccc21 [Example 30, (S)—N-(5-Cyano-1-((4-fluoro-2-methoxyphenyl)sulfonyl)-3-(2-methoxypyridin-3-yl)-2-oxoindolin-3-yl)-3-(4-(methyl(oxetan-3-yl)amino)piperidin-1-yl)azetidine-1-carboxamide] | + (10-<25) | 1 to 10 nM
17 | CCOc1ncccc1[C@]1(NC(=O)N2CC(N3CCC(N4CC(O)C4)CC3)C2)C(=O)N(S(=O)(=O)c2ccc(OC)cc2OC)c2ccc(C#N)cc21 [Example 43, (S)—N-(5-Cyano-1-((2,4-dimethoxyphenyl)sulfonyl)-3-(2-ethoxypyridin-3-yl)-2-oxoindolin-3-yl)-3-(4-(3-hydroxyazetidin-1-yl)piperidin-1-yl)azetidine-1-carboxamide] | +++ (>75) | 1 to 10 nM
18 | CCOc1ncccc1[C@]1(NC(=O)N2CC(N3CCC(N4CCC5(CC4)COC5)CC3)C2)C(=O)N(S(=O)(=O)c2ccc(OC)cc2OC)c2ccc(C#N)cc21 [Example 6, (S)-3-(4-(2-Oxa-7-Azaspiro[3.5]nonan-7-yl)piperidin-1-yl)-N-(5-cyano-1-((2,4-dimethoxyphenyl)sulfonyl)-3-(2-ethoxypyridin-3-yl)-2-oxoindolin-3-yl)azetidine-1-carboxamide] | +++ (>75) | 1 to 10 nM
19 | COc1ccc(S(=O)(=O)N2C(=O)[C@@](NC(=O)N3CC(N4CCC(N(C)C5CCOCC5)CC4)C3)(c3cccnc3OC)c3cc(C#N)ccc32)c(OC)c1 [Example 21, (S)—N-(5-Cyano-1-((2,4-dimethoxyphenyl)sulfonyl)-3-(2-methoxypyridin-3-yl)-2-oxoindolin-3-yl)-3-(4-(methyl(tetrahydro-2H-pyran-4-yl)amino)piperidin-1-yl)azetidine-1-carboxamide] | + (10-<25) | < 1 nM
20 | COc1ccc(S(=O)(=O)N2C(=O)[C@@](NC(=O)N3CC(N4CCC(N5CCOCC5)CC4)C3)(c3cccnc3OC)c3cc(C#N)ccc32)c(OC)c1 [Example 3, (S)—N-(5-Cyano-1-((2,4-dimethoxyphenyl)sulfonyl)-3-(2-methoxypyridin-3-yl)-2-oxoindolin-3-yl)-3-(4-morpholinopiperidin-1-yl)azetidine-1-carboxamide] | +++ (>75) | < 1 nM
